Data taken from patent US20080241279A1, “Materials and methods of using calcium for reduction of inflammation” (General Mills, Inc., priority 2004, published 2008).

Conditions: about 1200 mg/day calcium, about −500 kcal diet, about 12 weeks; control group about 20%
Protocol: For example, about eighty (80) obese, but otherwise healthy, men and women (average baseline BMI about 34 kg/m2) with an average CRP of about 6.0 mg/L at baseline could be randomized to about 2 groups for about a 12 week intervention. Both groups would consume reduced calorie diets (about −500 kcal) to promote weight loss, with the calcium intake in “the control group” adjusted to about 500 mg/day and in “the intervention group” adjusted to about 1200 mg/day using a calcium source. […] DEXA and hs-CRP measurement can be performed at baseline and about 12 weeks.

O=C([O-])[O-].[Ca+2] [calcium carbonate]
fat loss from trunkal region: about 50%
